Here are results for seven cell lines from the supplement of paper PMC10307832.

Test in all cases: relative viability (nuclei count vs DMSO), 5 days (fraction); higher = more cells survive
Compound in experiment [1]: CO[C@H]1C[C@@H]2CC[C@@H](C)[C@@](O)(O2)C(=O)C(=O)N2CCCC[C@H]2C(=O)O[C@H]([C@H](C)C[C@@H]2CC[C@@H](OCCO)[C@H](OC)C2)CC(=O)[C@H](C)/C=C(\C)[C@@H](O)[C@@H](OC)C(=O)[C@H](C)C[C@H](C)/C=C/C=C/C=C/1C [Everolimus]
In short, it runs like this:
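Lung cancer cell lines received five library-drug doses (not always all listed) spaced by √10, pinned on vehicle-anchored 1536-well plates after an overnight stay at 37 °C. Five days later, with no medium change, nuclei were Hoechst-stained, imaged at 4× and counted with MetaXpress. Viability is treated-well nuclei relative to vehicle-well nuclei, as a median across plates. Passing plates had control CV below 25% and at least one doubling.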

Compound in experiment [2]: CO[C@H]1C[C@@H]2CC[C@@H](C)[C@@](O)(O2)C(=O)C(=O)N2CCCC[C@H]2C(=O)O[C@H]([C@H](C)C[C@@H]2CC[C@@H](OCCO)[C@H](OC)C2)CC(=O)[C@H](C)/C=C(\C)[C@@H](O)[C@@H](OC)C(=O)[C@H](C)C[C@H](C)/C=C/C=C/C=C/1C [Everolimus] + NC(=O)Nc1cc(-c2cccc(F)c2)sc1C(=O)N[C@H]1CCCNC1 [AZD7762] (partner 0.2 µM)
In short, it runs like this: (§1)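 Lung cancer cell lines were pin-tool dosed in 1536-well plates on the day after seeding, with either a lone drug or a fixed anchor-drug dose plus five library-drug doses (not always all listed) in √10 steps. Nuclei were counted on 4× images after 5 days. Relative viability is the ratio of treated-well to vehicle-well nuclei counts, with each value a median of duplicate plates.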

Compound in experiment [3]: CO[C@H]1C[C@@H]2CC[C@@H](C)[C@@](O)(O2)C(=O)C(=O)N2CCCC[C@H]2C(=O)O[C@H]([C@H](C)C[C@@H]2CC[C@@H](OCCO)[C@H](OC)C2)CC(=O)[C@H](C)/C=C(\C)[C@@H](O)[C@@H](OC)C(=O)[C@H](C)C[C@H](C)/C=C/C=C/C=C/1C [Everolimus] + CC(=O)Nc1cccc(-n2c(=O)n(C3CC3)c(=O)c3c(Nc4ccc(I)cc4F)n(C)c(=O)c(C)c32)c1 [Trametinib] (partner 0.02 µM)
In short, it runs like this: as §1

Compound in experiment [4]: CO[C@H]1C[C@@H]2CC[C@@H](C)[C@@](O)(O2)C(=O)C(=O)N2CCCC[C@H]2C(=O)O[C@H]([C@H](C)C[C@@H]2CC[C@@H](OCCO)[C@H](OC)C2)CC(=O)[C@H](C)/C=C(\C)[C@@H](O)[C@@H](OC)C(=O)[C@H](C)C[C@H](C)/C=C/C=C/C=C/1C [Everolimus] + Cc1cc(Nc2cc(N3CCN(C)CC3)nc(Sc3ccc(NC(=O)C4CC4)cc3)n2)n[nH]1 [Tozasertib] (partner 0.1 µM)
Summed up:
as §1

Consider NCI-H2170, for which the relative viability in experiment [1] (0.01 µM) is 0.459; in experiment [1] (0.03162 µM), 0.45; in experiment [1] (0.1 µM) it was 0.428; in experiment [1] (0.3162 µM) it was 0.459; in experiment [1] (1 µM) it was 0.464; in experiment [2] (first compound 0.01 µM), 0.367. Moreover, the relative viability came to 0.403 in experiment [2] (first compound 0.03162 µM); 0.334 in experiment [2] (first compound 0.1 µM); 0.374 in experiment [2] (first compound 0.3162 µM); 0.401 in experiment [2] (first compound 1 µM); 0.316 in experiment [3] (first compound 0.01 µM); 0.248 in experiment [3] (first compound 0.03162 µM). Moreover, the relative viability is 0.266 in experiment [3] (first compound 0.1 µM); 0.252 in experiment [3] (first compound 0.3162 µM); 0.279 in experiment [3] (first compound 1 µM); 0.443 in experiment [4] (first compound 0.01 µM); 0.428 in experiment [4] (first compound 0.03162 µM); 0.461 in experiment [4] (first compound 0.1 µM). Further, the relative viability in experiment [4] (first compound 0.3162 µM) is 0.518; in experiment [4] (first compound 1 µM) it was 0.399.

Regarding SW 900, the relative viability in experiment [1] (0.01 µM) came to 0.578; in experiment [1] (0.03162 µM), 0.498; in experiment [1] (0.1 µM) it was 0.545; in experiment [1] (0.3162 µM), 0.57; in experiment [1] (1 µM) it was 0.512; in experiment [2] (first compound 0.01 µM), 0.362. The relative viability in experiment [2] (first compound 0.03162 µM) came out at 0.33; in experiment [2] (first compound 0.1 µM), 0.285; in experiment [2] (first compound 0.3162 µM), 0.36; in experiment [2] (first compound 1 µM), 0.427; in experiment [3] (first compound 0.01 µM) it was 0.604; in experiment [3] (first compound 0.03162 µM), 0.733. Moreover, the relative viability came to 0.536 in experiment [3] (first compound 0.1 µM); 0.717 in experiment [3] (first compound 0.3162 µM); 0.432 in experiment [3] (first compound 1 µM); 0.332 in experiment [4] (first compound 0.01 µM); 0.462 in experiment [4] (first compound 0.03162 µM); 0.442 in experiment [4] (first compound 0.1 µM). Also, the relative viability in experiment [4] (first compound 0.3162 µM) worked out at 0.404; in experiment [4] (first compound 1 µM), 0.448.

Take LCLC-103H: the relative viability in experiment [1] (0.01 µM) came out at 0.977; in experiment [1] (0.03162 µM) it was 0.969; in experiment [1] (0.1 µM) it was 0.834; in experiment [1] (0.3162 µM) it was 0.922; in experiment [1] (1 µM), 0.871; in experiment [2] (first compound 0.01 µM) it was 0.561. The relative viability in experiment [2] (first compound 0.03162 µM) was determined as 0.671; in experiment [2] (first compound 0.1 µM) it was 0.629; in experiment [2] (first compound 0.3162 µM) it was 0.673; in experiment [2] (first compound 1 µM) it was 0.608; in experiment [3] (first compound 0.01 µM), 0.605; in experiment [3] (first compound 0.03162 µM), 0.659. The relative viability in experiment [3] (first compound 0.1 µM) was 0.661; in experiment [3] (first compound 0.3162 µM), 0.601; in experiment [3] (first compound 1 µM), 0.591; in experiment [4] (first compound 0.01 µM), 0.459; in experiment [4] (first compound 0.03162 µM), 0.451; in experiment [4] (first compound 0.1 µM), 0.4. Besides, the relative viability in experiment [4] (first compound 0.3162 µM) amounted to 0.446; in experiment [4] (first compound 1 µM), 0.322.

As to NCI-H441, the relative viability was 0.898 in experiment [1] (0.01 µM); 0.961 in experiment [1] (0.03162 µM); 0.907 in experiment [1] (0.1 µM); 0.984 in experiment [1] (0.3162 µM); 0.952 in experiment [1] (1 µM); 0.97 in experiment [2] (first compound 0.01 µM). In addition, the relative viability in experiment [2] (first compound 0.03162 µM) came to 1.17; in experiment [2] (first compound 0.1 µM), 0.717; in experiment [2] (first compound 0.3162 µM) it was 0.953; in experiment [2] (first compound 1 µM), 1.01; in experiment [3] (first compound 0.01 µM), 0.373; in experiment [3] (first compound 0.03162 µM), 0.306. Moreover, the relative viability in experiment [3] (first compound 0.1 µM) is 0.327; in experiment [3] (first compound 0.3162 µM) it was 0.357; in experiment [3] (first compound 1 µM), 0.29; in experiment [4] (first compound 0.01 µM) it was 0.521; in experiment [4] (first compound 0.03162 µM) it was 0.643; in experiment [4] (first compound 0.1 µM) it was 0.636. The values for the relative viability in experiment [4] (first compound 0.3162 µM) and in experiment [4] (first compound 1 µM) were 0.555 and 0.54, respectively.

Turning to BEN, the relative viability was found to be 0.567 in experiment [1] (0.01 µM); 0.358 in experiment [1] (0.03162 µM); 0.334 in experiment [1] (0.1 µM); 0.46 in experiment [1] (0.3162 µM); 0.387 in experiment [1] (1 µM); 0.377 in experiment [2] (first compound 0.01 µM). Further, the relative viability in experiment [2] (first compound 0.03162 µM) worked out at 0.394; in experiment [2] (first compound 0.1 µM), 0.417; in experiment [2] (first compound 0.3162 µM), 0.41; in experiment [2] (first compound 1 µM) it was 0.444; in experiment [3] (first compound 0.01 µM) it was 0.494; in experiment [3] (first compound 0.03162 µM) it was 0.447. Further, the relative viability in experiment [3] (first compound 0.1 µM) worked out at 0.467; in experiment [3] (first compound 0.3162 µM), 0.484; in experiment [3] (first compound 1 µM), 0.46; in experiment [4] (first compound 0.01 µM), 0.462; in experiment [4] (first compound 0.03162 µM) it was 0.452; in experiment [4] (first compound 0.1 µM), 0.491. In addition, the relative viability was determined as 0.415 in experiment [4] (first compound 0.3162 µM) and 0.354 in experiment [4] (first compound 1 µM).

Consider LC-2-ad, for which the relative viability was 0.932 in experiment [1] (0.01 µM); 1.03 in experiment [1] (0.03162 µM); 0.89 in experiment [1] (0.1 µM); 0.958 in experiment [1] (0.3162 µM); 0.9 in experiment [1] (1 µM); 0.802 in experiment [2] (first compound 0.01 µM). Also, the relative viability came to 0.85 in experiment [2] (first compound 0.03162 µM); 0.775 in experiment [2] (first compound 0.1 µM); 0.79 in experiment [2] (first compound 0.3162 µM); 0.83 in experiment [2] (first compound 1 µM); 0.961 in experiment [3] (first compound 0.01 µM); 0.957 in experiment [3] (first compound 0.03162 µM). In addition, the relative viability in experiment [3] (first compound 0.1 µM) stood at 0.948; in experiment [3] (first compound 0.3162 µM), 0.964; in experiment [3] (first compound 1 µM) it was 0.891; in experiment [4] (first compound 0.01 µM), 0.434; in experiment [4] (first compound 0.03162 µM) it was 0.384; in experiment [4] (first compound 0.1 µM), 0.385. For the same cell line, the relative viability in experiment [4] (first compound 0.3162 µM) amounted to 0.423; in experiment [4] (first compound 1 µM), 0.343.

For RERF-LC-KJ, the relative viability turned out to be 0.788 in experiment [1] (0.01 µM); 0.695 in experiment [1] (0.03162 µM); 0.584 in experiment [1] (0.1 µM); 0.659 in experiment [1] (0.3162 µM); 0.558 in experiment [1] (1 µM); 0.566 in experiment [2] (first compound 0.01 µM). For the same cell line, the relative viability in experiment [2] (first compound 0.03162 µM) is 0.415; in experiment [2] (first compound 0.1 µM) it was 0.462; in experiment [2] (first compound 0.3162 µM) it was 0.507; in experiment [2] (first compound 1 µM), 0.598; in experiment [3] (first compound 0.01 µM) it was 0.654; in experiment [3] (first compound 0.03162 µM), 0.613. In addition, the relative viability was 0.495 in experiment [3] (first compound 0.1 µM); 0.494 in experiment [3] (first compound 0.3162 µM); 0.524 in experiment [3] (first compound 1 µM); 0.398 in experiment [4] (first compound 0.01 µM); 0.436 in experiment [4] (first compound 0.03162 µM); 0.382 in experiment [4] (first compound 0.1 µM). For the same cell line, the values for the relative viability in experiment [4] (first compound 0.3162 µM) and in experiment [4] (first compound 1 µM) were 0.431 and 0.428, respectively.
